From article PMC6934663, “Genomic and functional gene studies suggest a key role of beta-carotene oxygenase 1 like (bco1l) gene in salmon flesh color” (Scientific Reports, 2019)

Biological target: T1, Bco1l (Salmo salar, UniProt A0A1S2X8G0)
T1 construct: the ssa11 copy is truncated), expressed in carotenoid-producing E. coli XL1-Blue, 528 aa
T1 sequence (A0A1S2X8G0 1-528): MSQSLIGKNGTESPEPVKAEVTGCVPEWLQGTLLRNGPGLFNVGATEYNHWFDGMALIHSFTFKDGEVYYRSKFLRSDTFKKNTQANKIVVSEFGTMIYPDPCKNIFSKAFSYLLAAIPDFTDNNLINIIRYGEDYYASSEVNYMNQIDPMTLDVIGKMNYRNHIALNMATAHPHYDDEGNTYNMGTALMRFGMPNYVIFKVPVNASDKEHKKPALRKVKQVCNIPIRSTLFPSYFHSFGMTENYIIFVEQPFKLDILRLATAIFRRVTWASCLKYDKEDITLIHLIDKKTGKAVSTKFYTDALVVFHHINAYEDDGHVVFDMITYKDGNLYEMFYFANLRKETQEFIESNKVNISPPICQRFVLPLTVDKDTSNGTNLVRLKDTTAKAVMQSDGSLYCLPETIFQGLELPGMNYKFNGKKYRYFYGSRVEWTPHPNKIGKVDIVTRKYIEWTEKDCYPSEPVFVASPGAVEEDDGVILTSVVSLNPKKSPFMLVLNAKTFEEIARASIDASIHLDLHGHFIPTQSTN
Test: HPLC of cleavage products in beta-carotene-producing E. coli
Assay type: cell-based
Settings: E. coli co-expression, IPTG 0.2 mM, 16 h at 25 °C in darkness; 15,15' oxidative cleavage

CC1=C(/C=C/C(C)=C/C=C/C(C)=C/C=C/C=C(C)/C=C/C=C(C)/C=C/C2=C(C)CCCC2(C)C)C(C)(C)CCC1 [beta-carotene]
HPLC of cleavage products in beta-carotene-producing E. coli: The results showed that Bco1l cleaved beta-carotene (Fig. 6A).
